Source: PubChem BioAssay (NCI)
Converted amounts (≈) assume the structure as drawn.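 These data come from cells grown in 96-well plates and exposed to compound for 48 hours at five concentrations. GI50 is the concentration that inhibits growth by half. TGI denotes the concentration required for complete inhibition of growth.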

How the values were obtained:
Assay in all cases: NCI tumour cell line growth inhibition, 48 h
UO-31 renal = system: UO-31 renal
HCT-116 colon = system: HCT-116 colon
MDA-MB-435 = system: MDA-MB-435
MOLT-4 leukemia = system: MOLT-4 leukemia
M14 melanoma = system: M14 melanoma
HT29 colon = system: HT29 colon
MCF7 breast = system: MCF7 breast
NCI-H522 lung = system: NCI-H522 lung
KM12 colon = system: KM12 colon
TK-10 renal = system: TK-10 renal

## CCN(CC)C(=O)N[C@@H](CC(C)C)C(=O)NC
UO-31 renal
  TGI: > 100 µM
HCT-116 colon
  TGI: > 100 µM
MDA-MB-435
  TGI: > 100 µM
MOLT-4 leukemia
  TGI: > 100 µM
M14 melanoma
  TGI: > 100 µM
HT29 colon
  TGI: > 100 µM
MCF7 breast
  TGI: > 100 µM
NCI-H522 lung
  TGI: > 100 µM
KM12 colon
  TGI: > 100 µM

## CCCOC(=O)CCC(NC(=O)c1ccc(Nc2nc3ccccc3nc2-c2cccs2)cc1)C(=O)OCCC (centres undefined)
TK-10 renal
  TGI: > 100 µM
UO-31 renal
  TGI: > 100 µM
HCT-116 colon
  TGI: > 100 µM
MOLT-4 leukemia
  TGI: > 100 µM
NCI-H522 lung
  TGI: > 100 µM
KM12 colon
  TGI: > 100 µM

## O=C(Cn1c(=O)oc2ccccc21)N(c1ccccc1)c1ccccc1
TK-10 renal
  TGI: > 100 µM
UO-31 renal
  TGI: > 100 µM
HCT-116 colon
  TGI: > 100 µM
MDA-MB-435
  TGI: > 100 µM
MOLT-4 leukemia
  TGI: > 100 µM
M14 melanoma
  TGI: > 100 µM
HT29 colon
  TGI: > 100 µM
MCF7 breast
  TGI: > 100 µM
KM12 colon
  TGI: > 100 µM

## CN1C/C(=C\c2ccccc2)C2=NN(C(N)=S)[C@H](c3ccccc3)[C@@H]2C1
TK-10 renal
  TGI: > 100 µM
UO-31 renal
  TGI: > 100 µM
HCT-116 colon
  TGI: > 100 µM
MOLT-4 leukemia
  TGI: > 100 µM
M14 melanoma
  TGI: > 100 µM
HT29 colon
  TGI: > 100 µM
NCI-H522 lung
  TGI: > 100 µM
KM12 colon
  TGI: > 100 µM

## C=CCSC1=N/C(=C\c2ccc(C)cc2)C(=O)N1CC=C
TK-10 renal
  TGI: > 100 µM
UO-31 renal
  TGI: 84.4 µM
HCT-116 colon
  TGI: 67.4 µM
MDA-MB-435
  TGI: 98.8 µM
M14 melanoma
  TGI: > 100 µM
HT29 colon
  TGI: 34.1 µM
MCF7 breast
  TGI: 55.5 µM
NCI-H522 lung
  TGI: > 100 µM
KM12 colon
  TGI: 69.1 µM

## CC(C)C(Sc1nc(N)nc2nc[nH]c12)C(=O)O (centres undefined)
TK-10 renal
  TGI: > 100 µM
UO-31 renal
  TGI: > 100 µM
HCT-116 colon
  TGI: > 100 µM
MDA-MB-435
  TGI: > 100 µM
M14 melanoma
  TGI: > 100 µM
HT29 colon
  TGI: > 100 µM
MCF7 breast
  TGI: > 100 µM
NCI-H522 lung
  TGI: > 100 µM
KM12 colon
  TGI: > 100 µM

## O=C(O)c1ccccc1Sc1ccc(C=C2NC(=S)N(c3ccccc3)C2=O)s1
TK-10 renal
  TGI: > 100 µM
UO-31 renal
  TGI: > 100 µM
HCT-116 colon
  TGI: > 100 µM
MDA-MB-435
  TGI: > 100 µM
MOLT-4 leukemia
  TGI: > 100 µM
HT29 colon
  TGI: > 100 µM
MCF7 breast
  TGI: > 100 µM
NCI-H522 lung
  TGI: 38.9 µM
KM12 colon
  TGI: > 100 µM

## c1ccc(-c2cc(-c3ccccc3)nc(-c3ccncc3)c2)cc1
TK-10 renal
  TGI: > 100 µM
UO-31 renal
  TGI: > 100 µM
HCT-116 colon
  TGI: > 100 µM
MDA-MB-435
  TGI: > 100 µM
MOLT-4 leukemia
  TGI: > 100 µM
M14 melanoma
  TGI: > 100 µM
MCF7 breast
  TGI: > 100 µM
NCI-H522 lung
  TGI: > 100 µM
KM12 colon
  TGI: > 100 µM

## c1c2c(cc3c1OCO3)-c1ncc3cc4c(cc3c1C2)OCO4
TK-10 renal
  GI50: 0.143 µM
  TGI: 3.87 µM
UO-31 renal
  GI50: 2.49 µM
  TGI: > 100 µM
HCT-116 colon
  GI50: < 0.0305 µM
  TGI: > 61.2 µM
MDA-MB-435
  GI50: 54 µM
  TGI: > 100 µM
MOLT-4 leukemia
  GI50: 0.0147 µM
  TGI: 0.152 µM
M14 melanoma
  GI50: < 0.01 µM
  TGI: > 100 µM
HT29 colon
  GI50: < 0.01 µM
  TGI: > 100 µM
MCF7 breast
  GI50: < 0.0377 µM
  TGI: 7.44 µM
NCI-H522 lung
  TGI: 72.2 µM

## CC(=O)N(C(=O)CC(=O)N1N=C(C)C(N=Nc2cccc([N+](=O)[O-])c2)C1=O)c1ccc(Cl)cc1 (centres undefined)
TK-10 renal
  TGI: > 10 µM
HCT-116 colon
  TGI: > 10 µM
MDA-MB-435
  TGI: > 10 µM
M14 melanoma
  TGI: > 10 µM
HT29 colon
  TGI: > 10 µM
MCF7 breast
  TGI: > 10 µM
NCI-H522 lung
  TGI: > 10 µM
KM12 colon
  TGI: > 10 µM

## COc1ccc(C(CC(=O)c2cccs2)C(=O)c2ccc3c(c2)OCO3)cc1 (centres undefined)
TK-10 renal
  TGI: > 100 µM
HCT-116 colon
  TGI: > 100 µM
MDA-MB-435
  TGI: > 100 µM
MOLT-4 leukemia
  TGI: > 100 µM
M14 melanoma
  TGI: > 100 µM
MCF7 breast
  TGI: > 100 µM
KM12 colon
  TGI: > 100 µM

## CC(NC(CC12CC3CC(CC(C3)C1)C2)C(N)=O)c1ccccc1 (centres undefined)
TK-10 renal
  TGI: > 100 µM
UO-31 renal
  TGI: 51.4 µM
HCT-116 colon
  TGI: 42.2 µM
MDA-MB-435
  TGI: 41.1 µM
MOLT-4 leukemia
  TGI: 39.6 µM
M14 melanoma
  TGI: 45.7 µM
HT29 colon
  TGI: 48.1 µM
MCF7 breast
  TGI: > 100 µM
NCI-H522 lung
  TGI: 47.5 µM

## O=C(NCC(O)COc1ccccc1)c1ccccc1O (centres undefined)
TK-10 renal
  TGI: > 100 µM
UO-31 renal
  TGI: > 100 µM
HCT-116 colon
  TGI: > 100 µM
MDA-MB-435
  TGI: > 100 µM
MOLT-4 leukemia
  TGI: 47.2 µM
M14 melanoma
  TGI: > 100 µM
MCF7 breast
  TGI: > 100 µM
NCI-H522 lung
  TGI: > 100 µM
KM12 colon
  TGI: > 100 µM

## CC(=O)OC1CCC2(C)C(CCC3C2CCC2(C)C(c4ccc(=O)oc4)C(OC(C)=O)CC32O)C1 (centres undefined)
UO-31 renal
  TGI: 0.0712 µM
HCT-116 colon
  TGI: 0.036 µM
MOLT-4 leukemia
  TGI: 0.0227 µM
HT29 colon
  TGI: 0.527 µM
MCF7 breast
  TGI: 0.229 µM
NCI-H522 lung
  TGI: 0.025 µM
KM12 colon
  TGI: 0.161 µM

## Cc1ccc(-c2ccc3c(c2)Sc2ccccc2O3)n1C
TK-10 renal
  TGI: > 100 µM
UO-31 renal
  TGI: > 68.5 µM
HCT-116 colon
  TGI: > 100 µM
MOLT-4 leukemia
  TGI: > 67.8 µM
M14 melanoma
  TGI: > 65.4 µM
NCI-H522 lung
  TGI: 0.373 µM
KM12 colon
  TGI: > 43.2 µM

## Cc1c2ccncc2c(C)c2c1[nH]c1ccc(O)cc12
UO-31 renal
  GI50: 0.073 µg/mL
  TGI: 1.09 µg/mL
MOLT-4 leukemia
  TGI: 0.0671 µg/mL
HT29 colon
  GI50: 0.185 µg/mL
  TGI: 1.23 µg/mL
MCF7 breast
  GI50: 0.0319 µg/mL
  TGI: 0.338 µg/mL
NCI-H522 lung
  TGI: 0.172 µg/mL
KM12 colon
  GI50: 0.0458 µg/mL (≈ 0.174 µM)
  TGI: 0.271 µg/mL

## COC1=CC(=O)[C@@]2(C)C(C)[C@H](c3ccccc3)[C@H]2C1=O (some centres undefined)
TK-10 renal
  TGI: > 100 µM
UO-31 renal
  TGI: > 100 µM
MOLT-4 leukemia
  TGI: > 100 µM
M14 melanoma
  TGI: > 100 µM
HT29 colon
  TGI: > 100 µM
NCI-H522 lung
  TGI: > 100 µM
KM12 colon
  TGI: > 100 µM

## CCN(CC)C(=O)Cc1[nH][nH]c(=O)c1C(=O)N(CC)CC
TK-10 renal
  TGI: > 100 µM
UO-31 renal
  TGI: > 100 µM
HCT-116 colon
  TGI: > 100 µM
MOLT-4 leukemia
  TGI: > 100 µM
M14 melanoma
  TGI: > 100 µM
HT29 colon
  TGI: > 100 µM
NCI-H522 lung
  TGI: > 100 µM
KM12 colon
  TGI: > 100 µM

## CC/C(CC(=O)CCC(=O)Nc1ccc(C)c(C)c1)=N\NC(=O)c1cc2ccccc2cc1O
UO-31 renal
  TGI: > 100 µM
HCT-116 colon
  TGI: > 100 µM
MOLT-4 leukemia
  TGI: > 100 µM
M14 melanoma
  TGI: 42.5 µM
HT29 colon
  TGI: > 100 µM
KM12 colon
  TGI: > 100 µM

## O=C1OCOC2(CCCC2)C1c1ccccc1 (centres undefined)
TK-10 renal
  TGI: > 100 µM
UO-31 renal
  TGI: > 100 µM
HCT-116 colon
  TGI: > 100 µM
MDA-MB-435
  TGI: > 100 µM
MOLT-4 leukemia
  TGI: > 100 µM
M14 melanoma
  TGI: > 100 µM
HT29 colon
  TGI: > 100 µM
NCI-H522 lung
  TGI: > 100 µM
KM12 colon
  TGI: > 100 µM

## CC(=O)CC(O)(C(F)(F)Cl)C(F)(Cl)Cl (centres undefined)
TK-10 renal
  TGI: > 10 µM
UO-31 renal
  TGI: > 10 µM
HCT-116 colon
  TGI: > 10 µM
MDA-MB-435
  TGI: > 10 µM
M14 melanoma
  TGI: > 10 µM
HT29 colon
  TGI: > 10 µM
MCF7 breast
  TGI: > 10 µM
NCI-H522 lung
  TGI: > 10 µM
KM12 colon
  TGI: > 10 µM

## CCOC(=O)/C(C(=O)c1ccc[nH]1)=C1/CCCN1C
TK-10 renal
  TGI: > 100 µM
UO-31 renal
  TGI: > 100 µM
HCT-116 colon
  TGI: > 100 µM
MDA-MB-435
  TGI: > 100 µM
MOLT-4 leukemia
  TGI: > 100 µM
M14 melanoma
  TGI: > 100 µM
HT29 colon
  TGI: > 100 µM
MCF7 breast
  TGI: > 100 µM
KM12 colon
  TGI: > 100 µM

## O=C1C=C2SC3C[C@@]24CC1(O)[N+]1=c2c4c(c(O)c4c2=C(C=N4)CC1)N3
UO-31 renal
  TGI: 3.48 µM
HCT-116 colon
  TGI: 0.492 µM
MOLT-4 leukemia
  TGI: 0.859 µM
HT29 colon
  TGI: 1.01 µM
MCF7 breast
  TGI: 0.972 µM
NCI-H522 lung
  TGI: 0.789 µM
KM12 colon
  TGI: 2.91 µM

## CCOC(=O)CN(CC)C(=O)NC12CC3CC(CC(C3)C1)C2
UO-31 renal
  TGI: 389 µM
HCT-116 colon
  TGI: 522 µM
MOLT-4 leukemia
  TGI: 436 µM
HT29 colon
  TGI: 425 µM
MCF7 breast
  TGI: 461 µM
NCI-H522 lung
  TGI: 493 µM
KM12 colon
  TGI: > 750 µM
